Data taken from the NIST ThermoML archive (doi:10.1016/j.jct.2011.07.006).
Numbers after ± are expanded uncertainties.

Assay: xn = mol fraction of the nth substance listed
Settings: Gas, Buoyancy - hydrostatic balance with magnetic suspension - one sinker

N#N [nitrogen] + O=C=O
mass density [kg/m3]
Settings	x2 = 0.1001	x2 = 0.1505
250.04 K, 12011 kPa	188.824 ± 0.51	–
250.04 K, 14015 kPa	220.196 ± 0.63	–
250.04 K, 16024 kPa	250.228 ± 0.74	–
250.04 K, 18041 kPa	278.626 ± 0.83	–
250.04 K, 19866 kPa	302.682 ± 0.88	–
250.05 K, 1985.1 kPa	29 ± 0.043	–
250.05 K, 3997.3 kPa	59.733 ± 0.1	–
250.05 K, 5998.8 kPa	91.41 ± 0.18	–
250.05 K, 8000 kPa	123.81 ± 0.27	–
250.05 K, 10007 kPa	156.529 ± 0.39	–
250.06 K, 1944.1 kPa	–	29.337 ± 0.044
250.06 K, 3982.7 kPa	–	61.879 ± 0.14
250.06 K, 5984.1 kPa	–	95.441 ± 0.2
250.06 K, 7996.2 kPa	–	130.387 ± 0.29
250.06 K, 16016 kPa	–	267.875 ± 0.69
250.06 K, 18019 kPa	–	298.361 ± 0.78
250.06 K, 19997 kPa	–	326.225 ± 0.87
250.07 K, 10003 kPa	–	165.836 ± 0.38
250.07 K, 12006 kPa	–	201.013 ± 0.49
250.07 K, 14014 kPa	–	235.308 ± 0.59
275.01 K, 6002 kPa	80.825 ± 0.13	–
275.01 K, 7997.9 kPa	108.505 ± 0.18	–
275.02 K, 1988.5 kPa	–	26.992 ± 0.079
275.02 K, 3997.1 kPa	53.276 ± 0.083	–
275.02 K, 4000.6 kPa	–	55.255 ± 0.11
275.02 K, 5998 kPa	–	84.088 ± 0.17
275.02 K, 7994.3 kPa	–	113.405 ± 0.25
275.02 K, 10004 kPa	136.29 ± 0.24	–
275.02 K, 12009 kPa	163.678 ± 0.31	–
275.02 K, 14013 kPa	190.433 ± 0.38	–
275.02 K, 16022 kPa	216.33 ± 0.45	–
275.02 K, 18057 kPa	241.448 ± 0.51	–
275.02 K, 19841 kPa	262.442 ± 0.4	–
275.03 K, 9995.5 kPa	–	142.952 ± 0.33
275.03 K, 12000 kPa	–	172.315 ± 0.42
275.03 K, 14001 kPa	–	201.02 ± 0.51
275.03 K, 15981 kPa	–	228.492 ± 0.6
275.03 K, 17994 kPa	–	255.193 ± 0.67
275.03 K, 19983 kPa	–	280.214 ± 0.8
299.96 K, 17994 kPa	–	224.784 ± 0.5
299.96 K, 19165 kPa	226.098 ± 0.5	–
299.96 K, 19977 kPa	–	247.119 ± 0.54
299.97 K, 1992.1 kPa	–	24.615 ± 0.039
299.97 K, 1997.9 kPa	23.945 ± 0.024	–
299.97 K, 3982.3 kPa	–	49.692 ± 0.094
299.97 K, 3996.5 kPa	48.22 ± 0.077	–
299.97 K, 5996.4 kPa	72.692 ± 0.11	–
299.97 K, 5999.2 kPa	–	75.467 ± 0.14
299.97 K, 7999.7 kPa	97.214 ± 0.15	–
299.97 K, 8007.8 kPa	–	101.3 ± 0.19
299.97 K, 10002 kPa	121.553 ± 0.2	–
299.97 K, 10003 kPa	–	126.921 ± 0.25
299.97 K, 12006 kPa	145.55 ± 0.25	–
299.97 K, 12008 kPa	–	152.379 ± 0.32
299.97 K, 13991 kPa	–	177.09 ± 0.38
299.97 K, 14010 kPa	169.025 ± 0.3	–
299.97 K, 15969 kPa	–	201.068 ± 0.44
299.97 K, 16014 kPa	191.829 ± 0.36	–
299.97 K, 17869 kPa	212.244 ± 0.41	–
324.98 K, 1996 kPa	21.979 ± 0.027	–
324.98 K, 1996.1 kPa	–	22.645 ± 0.034
324.98 K, 3995.9 kPa	–	45.557 ± 0.081
324.98 K, 3996.2 kPa	44.111 ± 0.071	–
324.98 K, 5991.8 kPa	66.201 ± 0.1	–
324.98 K, 5996.6 kPa	–	68.599 ± 0.12
324.98 K, 7997.6 kPa	–	91.632 ± 0.16
324.98 K, 8019.2 kPa	88.521 ± 0.13	–
324.98 K, 9996.9 kPa	–	114.495 ± 0.2
324.98 K, 9998.9 kPa	110.087 ± 0.17	–
324.98 K, 11991 kPa	–	137.002 ± 0.25
324.98 K, 11999 kPa	131.525 ± 0.21	–
324.98 K, 13983 kPa	152.335 ± 0.26	–
324.98 K, 14014 kPa	–	159.405 ± 0.3
324.98 K, 16001 kPa	172.971 ± 0.3	–
324.98 K, 16006 kPa	–	180.933 ± 0.35
324.98 K, 18001 kPa	192.79 ± 0.34	–
324.98 K, 18016 kPa	–	202.007 ± 0.4
324.98 K, 19621 kPa	208.36 ± 0.34	–
324.98 K, 19978 kPa	–	221.898 ± 0.46
349.96 K, 1996.1 kPa	20.34 ± 0.025	–
349.96 K, 3996.6 kPa	40.709 ± 0.065	–
349.96 K, 5996.7 kPa	60.978 ± 0.091	–
349.97 K, 1995.9 kPa	–	20.947 ± 0.031
349.97 K, 3995.3 kPa	–	41.993 ± 0.072
349.97 K, 5996.9 kPa	–	63.049 ± 0.1
349.97 K, 7995.4 kPa	–	83.959 ± 0.14
349.97 K, 7995.8 kPa	81.051 ± 0.12	–
349.97 K, 9997.5 kPa	100.892 ± 0.15	–
349.97 K, 9999.5 kPa	–	104.724 ± 0.17
349.97 K, 11998 kPa	120.373 ± 0.19	125.127 ± 0.21
349.97 K, 13995 kPa	139.425 ± 0.22	–
349.97 K, 14004 kPa	–	145.221 ± 0.25
349.97 K, 16000 kPa	158.084 ± 0.26	–
349.97 K, 16008 kPa	–	164.842 ± 0.29
349.97 K, 17994 kPa	176.127 ± 0.29	–
349.97 K, 18008 kPa	–	183.902 ± 0.33
349.97 K, 19378 kPa	188.339 ± 0.23	–
349.97 K, 19983 kPa	–	202.168 ± 0.37
374.95 K, 1963.6 kPa	–	19.172 ± 0.028
374.95 K, 3953.7 kPa	–	38.571 ± 0.065
374.95 K, 5995.6 kPa	–	58.378 ± 0.09
374.95 K, 7997.3 kPa	–	77.627 ± 0.12
374.95 K, 9986.3 kPa	–	96.527 ± 0.15
374.95 K, 11945 kPa	–	114.852 ± 0.18
374.96 K, 13990 kPa	–	133.615 ± 0.22
374.96 K, 15999 kPa	–	151.646 ± 0.25
374.96 K, 17992 kPa	–	169.101 ± 0.29
374.96 K, 19972 kPa	–	185.971 ± 0.28
374.97 K, 1974.6 kPa	18.733 ± 0.023	–
374.97 K, 3962.2 kPa	37.494 ± 0.06	–
374.97 K, 5994.5 kPa	56.518 ± 0.083	–
374.97 K, 7989.9 kPa	74.983 ± 0.11	–
374.97 K, 9982.5 kPa	93.148 ± 0.14	–
374.97 K, 11981 kPa	111.044 ± 0.16	–
374.97 K, 13972 kPa	128.504 ± 0.2	–
374.97 K, 15966 kPa	145.587 ± 0.23	–
374.98 K, 17960 kPa	162.237 ± 0.25	–
374.98 K, 18719 kPa	168.45 ± 0.27	–
400.02 K, 1995.3 kPa	–	18.223 ± 0.023
400.02 K, 3995.7 kPa	–	36.397 ± 0.056
400.02 K, 5995.4 kPa	–	54.424 ± 0.077
400.02 K, 7991.2 kPa	–	72.219 ± 0.1
400.02 K, 9990.8 kPa	–	89.804 ± 0.12
400.02 K, 11986 kPa	–	107.065 ± 0.15
400.02 K, 13988 kPa	–	124.054 ± 0.18
400.02 K, 15977 kPa	–	140.583 ± 0.21
400.02 K, 17818 kPa	–	155.538 ± 0.24
400.03 K, 3994.9 kPa	35.321 ± 0.059	–
400.03 K, 9992.9 kPa	86.844 ± 0.13	–
400.04 K, 1995.9 kPa	17.722 ± 0.023	–
400.04 K, 5992.1 kPa	52.72 ± 0.081	–
400.04 K, 7980.9 kPa	69.818 ± 0.1	–
400.04 K, 11987 kPa	103.403 ± 0.16	–
400.04 K, 13992 kPa	119.725 ± 0.19	–
400.04 K, 15984 kPa	135.572 ± 0.21	–
400.04 K, 17815 kPa	149.796 ± 0.24	–
400.04 K, 18908 kPa	158.136 ± 0.24	–
